Legend:
HEK293 = assay: MTT assay, cytotoxicity to normal cell line; type: cell-based, human; conditions: Homo sapiens, HEK293; MTT, 48 h drug exposure, mean ± SD; normal cell line
Protocol: (§1) Human cancer cell lines BEL-7402, A549, MCF-7, PC-3M, and normal renal cell line HEK293 were bought from the BeNa Culture Collection (Beijing, China). BEL7402, A549, and PC-3M were cultured in RPMI 1640 medium (Gibco, Carlsbad, CA, USA). MCF-7 and HEK293 were cultured in the DMEM medium (Gibco, CA, USA). The medium was supplemented with 10% fetal bovine serum (FBS) (CLARK, San Diego, CA, USA), 100 U/mL penicillin, and 0.1 mg/mL streptomycin (Beyotime, Nanjing, China). The cells were incubated in 5% CO2 at 37 °C.
(§2) The MTT assay was employed to assess the inhibitory effect of each compound on cell growth. A549, PC-3M, MCF-7, BEL-7402, and HEK293 cells in the logarithmic growth phase were seeded in 96-well culture plates at an inoculum density of 5 × 10^4 cells/mL. After overnight incubation at 37 °C in a 5% CO2 atmosphere, the cells fully adhered to the surface. Different concentrations of sample solutions (0, 3.125, 6.25, 12.5, 25, 50, 100 μmol/L) were added (100 μL) to treat the cells. After 48 h of drug treatment, 10 μL of a 5 mg/mL MTT solution was added to each well and incubated for 4 h at 37 °C. The supernatant was then discarded, and 150 μL of DMSO was added to dissolve the formazan. The mixture was shaken at room temperature for 15 min, and the absorbance (D) value was measured at 490 nm using a Microplate Reader (HBS-ScanY, Nanjing, China). The drug IC50 values were calculated using GraphPad Prism (v10.0). Each cell viability experiment was performed in triplicate.

A549 = assay: MTT assay, antiproliferative activity; type: cell-based; conditions: Homo sapiens, 48 h drug exposure, mean ± SD
Protocol: as §1, §2

MCF-7 = assay: MTT assay, antiproliferative activity; type: cell-based; conditions: Homo sapiens, MCF7, 48 h drug exposure, mean ± SD
Protocol: as §1, §2

BEL-7402 = assay: MTT assay, antiproliferative activity; type: cell-based; conditions: Homo sapiens, 48 h drug exposure, mean ± SD
Protocol: as §1, §2

PC-3M = assay: MTT assay, antiproliferative activity; type: cell-based; conditions: Homo sapiens, 48 h drug exposure, mean ± SD
Protocol: as §1, §2

| Compound | IC50 (A549) [µM] | IC50 (MCF-7) [µM] | IC50 (BEL-7402) [µM] | IC50 (PC-3M) [µM] | IC50 (HEK293) [µM] |
| --- | --- | --- | --- | --- | --- |
| CCCCCCCCCCC(=O)Oc1cc(O)c2c(=O)c(O)c(-c3ccc(OC)cc3)oc2c1CC=C(C)C [Compound 8] | > 100 | > 100 | > 100 | > 100 | > 100 |
| COc1ccc(-c2oc3c(CC=C(C)C)c(O)cc(O)c3c(=O)c2O)cc1 [ICT, Icaritin] | 43.1 ± 1.93 | 25.7 ± 1.89 | 21.8 ± 2.42 | 63.6 ± 2.67 | 43.2 ± 3.05 |
| COc1ccc(-c2oc3c(CC=C(C)C)c(OC(=O)CCCCCCCCCCBr)cc(O)c3c(=O)c2O)cc1 [Compound 4] | > 100 | > 100 | > 100 | 76 ± 4.69 | > 100 |
| COc1ccc(-c2oc3c(CC=C(C)C)c(OC(=O)CCCCCCBr)cc(O)c3c(=O)c2O)cc1 [Compound 2] | > 100 | 42.1 ± 5.47 | 40.6 ± 5.5 | 76.1 ± 4.44 | > 100 |
| O=c1[nH]cc(F)c(=O)[nH]1 [Compound 5-FU, 5-fluorouracil, reference compound] | 86.2 ± 7.94 | 13.5 ± 2.78 | 39 ± 1.32 | 58.7 ± 2.64 | > 100 |
| CCCCC(=O)Oc1cc(O)c2c(=O)c(O)c(-c3ccc(OC)cc3)oc2c1CC=C(C)C [Compound 5] | 97.8 ± 6.4 | 48.9 ± 1.42 | 39.9 ± 2.06 | 60.2 ± 3.88 | 77.2 ± 5.13 |
| COc1ccc(-c2oc3c(CC=C(C)C)c(OC(=O)CCCCCCCCBr)cc(O)c3c(=O)c2O)cc1 [Compound 3] | > 100 | > 100 | > 100 | > 100 | > 100 |
| CCCCCCCCC(=O)Oc1cc(O)c2c(=O)c(O)c(-c3ccc(OC)cc3)oc2c1CC=C(C)C [Compound 7] | > 100 | > 100 | 74.6 ± 4.83 | > 100 | > 100 |
| CCCCCCC(=O)Oc1cc(O)c2c(=O)c(O)c(-c3ccc(OC)cc3)oc2c1CC=C(C)C [Compound 6] | > 100 | 45.6 ± 3.02 | 40.6 ± 5.17 | > 100 | > 100 |

The next compounds have a lower IC50 (A549) than those just listed; values first:

| IC50 (A549) [µM] | IC50 (MCF-7) [µM] | IC50 (BEL-7402) [µM] | IC50 (PC-3M) [µM] | Compound | IC50 (HEK293) [µM] |
| --- | --- | --- | --- | --- | --- |
| 6.88 ± 0.62 | 2.44 ± 0.81 | 3.23 ± 0.64 | 0.24 ± 0.11 | COc1cccc2c1C(=O)c1c(O)c3c(c(O)c1C2=O)C[C@@](O)(C(=O)CO)C[C@@H]3O[C@H]1C[C@H](N)[C@H](O)[C@H](C)O1 [DOX, doxorubicin, reference compound] | > 100 |
| 10.7 ± 1.09 | 23.7 ± 2.24 | 3.43 ± 0.91 | 27.8 ± 1.74 | COc1ccc(-c2oc3c(CC=C(C)C)c(OC(=O)CCCCCC[P+](c4ccccc4)(c4ccccc4)c4ccccc4)cc(O)c3c(=O)c2O)cc1 [Mito-ICT-2] | 53.7 ± 5.15 |
| 21.1 ± 2.67 | 10.7 ± 0.35 | 2.85 ± 0.7 | 33.6 ± 2.53 | COc1ccc(-c2oc3c(CC=C(C)C)c(OC(=O)CCCC[P+](c4ccccc4)(c4ccccc4)c4ccccc4)cc(O)c3c(=O)c2O)cc1 [Mito-ICT-1] | 47 ± 2.91 |
| 13.7 ± 0.92 | 22.5 ± 1.78 | 3.85 ± 0.69 | 20.6 ± 2.06 | COc1ccc(-c2oc3c(CC=C(C)C)c(OC(=O)CCCCCCCC[P+](c4ccccc4)(c4ccccc4)c4ccccc4)cc(O)c3c(=O)c2O)cc1 [Mito-ICT-3] | 55 ± 3.92 |
| 35.8 ± 3.57 | 25.8 ± 1.07 | 47.8 ± 2.65 | 44.5 ± 2.15 | COc1ccc(-c2oc3c(CC=C(C)C)c(OC(=O)CCCCBr)cc(O)c3c(=O)c2O)cc1 [Compound 1] | 46.8 ± 1.82 |
